Results from PMC11859928, “Design, Synthesis, and Antiproliferative Activity of Novel Indole/1,2,4-Triazole Hybrids as Tubulin Polymerization Inhibitors” (Pharmaceuticals, 2025).
Like-named read-outs stand apart in the source and are kept apart here.

What was measured:
K-562 = experiment: NCI five-dose assay; assay type: cell-based, human; conditions: Homo sapiens, K562, K-562, five dose levels
RPMI-8226 = experiment: NCI five-dose assay; assay type: cell-based, human; conditions: RPMI-8226, five dose levels
A549/ATCC = experiment: NCI five-dose assay; assay type: cell-based, human; conditions: five dose levels
HOP-92 = experiment: NCI five-dose assay; assay type: cell-based, human; conditions: HOP-92, five dose levels
NCI-H226 = experiment: NCI five-dose assay; assay type: cell-based, human; conditions: Homo sapiens, NCI-H226, five dose levels
NCI-H23 = experiment: NCI five-dose assay; assay type: cell-based, human; conditions: NCI-H23, five dose levels
COLO205 = experiment: NCI five-dose assay; assay type: cell-based, human; conditions: COLO205, five dose levels
HCT-116 = experiment: NCI five-dose assay; assay type: cell-based, human; conditions: HCT-116, five dose levels
HCT-15 = experiment: NCI five-dose assay; assay type: cell-based, human; conditions: HCT-15, five dose levels
U251 = experiment: NCI five-dose assay; assay type: cell-based, human; conditions: U251, five dose levels
SK-MEL-28 = experiment: NCI five-dose assay; assay type: cell-based, human; conditions: SK-MEL-28, five dose levels
SK-MEL-5 = experiment: NCI five-dose assay; assay type: cell-based, human; conditions: SK-MEL-5, five dose levels
UACC-257 = experiment: NCI five-dose assay; assay type: cell-based, human; conditions: UACC-257, five dose levels
UACC-62 = experiment: NCI five-dose assay; assay type: cell-based, human; conditions: UACC-62, five dose levels
IGROV1 = experiment: NCI five-dose assay; assay type: cell-based, human; conditions: IGROV1, five dose levels
OVCAR-5 = experiment: NCI five-dose assay; assay type: cell-based, human; conditions: OVCAR-5, five dose levels
MCF7 = experiment: NCI five-dose assay; assay type: cell-based, human; conditions: MCF7, five dose levels
HS 578T = experiment: NCI five-dose assay; assay type: cell-based, human; conditions: five dose levels
BT-549 = experiment: NCI five-dose assay; assay type: cell-based, human; conditions: BT-549, five dose levels
T-47D = experiment: NCI five-dose assay; assay type: cell-based, human; conditions: five dose levels
MDA-MB-468 = experiment: NCI five-dose assay; assay type: cell-based, human; conditions: MDA-MB-468, five dose levels
Leukemia subpanel = experiment: NCI five-dose assay, subpanel mean; assay type: cell-based, human
CNS cancer subpanel = experiment: NCI five-dose assay, subpanel mean; assay type: cell-based, human
Melanoma subpanel = experiment: NCI five-dose assay, subpanel mean; assay type: cell-based, human
Renal cancer subpanel = experiment: NCI five-dose assay, subpanel mean; assay type: cell-based, human
Breast cancer subpanel = experiment: NCI five-dose assay, subpanel mean; assay type: cell-based, human
[1] = system: panel of 60 human tumor cell lines; experiment: NCI five-dose assay, full panel; assay type: cell-based
[2] = read-out: GI50 Conc. per Cell Lines
[3] = read-out: LC50 (the source's name)
[4] = Homo sapiens, read-out: GI50 Conc. per Cell Lines
[5] = Homo sapiens, read-out: LC50 (the source's name)

Structure (SMILES): O/N=C(\CSc1nnc(-c2c[nH]c3ccccc23)n1-c1ccccc1)c1ccc(Cl)cc1 [Compound 7j, (Z)-2-((5-(1H-Indol-3-yl)-4-phenyl-4H-1,2,4-triazol-3-yl)thio)-1-(4-chlorophenyl) Ethanone Oxime]
- GI50 (K-562; [2]): 2.55 µM
- CC50 (K-562; [3]): > 100 µM
- GI50 (RPMI-8226; [4]): 2.38 µM
- CC50 (RPMI-8226; [5]): > 100 µM
- TGI Conc. per Cell Lines (RPMI-8226): 7.29 µM
- GI50 (A549/ATCC; [4]): 3.35 µM
- CC50 (A549/ATCC; [5]): > 100 µM
- TGI Conc. per Cell Lines (A549/ATCC): 16.8 µM
- TGI Conc. per Cell Lines (HOP-92): 37.6 µM
- GI50 (HOP-92; [4]): 3.84 µM
- CC50 (HOP-92; [5]): > 100 µM
- GI50 (NCI-H226; [2]): 3.99 µM
- CC50 (NCI-H226; [3]): 61.8 µM
- GI50 (NCI-H23; [4]): 6.52 µM
- CC50 (NCI-H23; [5]): > 100 µM
- TGI Conc. per Cell Lines (NCI-H23): >100 µM
- TGI Conc. per Cell Lines (COLO205): 25.9 µM
- GI50 (COLO205; Homo sapiens, COLO 205, read-out: GI50 Conc. per Cell Lines): 4.47 µM
- CC50 (COLO205; Homo sapiens, COLO 205, read-out: LC50 (the source's name)): > 100 µM
- TGI Conc. per Cell Lines (HCT-116): 13.7 µM
- GI50 (HCT-116; [4]): 2.92 µM
- CC50 (HCT-116; [5]): > 100 µM
- TGI Conc. per Cell Lines (HCT-15): 13.6 µM
- GI50 (HCT-15; [4]): 3.2 µM
- CC50 (HCT-15; [5]): > 100 µM
- GI50 (U251; Homo sapiens, U-251, read-out: GI50 Conc. per Cell Lines): 4.73 µM
- CC50 (U251; Homo sapiens, U-251, read-out: LC50 (the source's name)): 46.9 µM
- TGI Conc. per Cell Lines (U251): 81.2 µM
- GI50 (SK-MEL-28; [4]): 4.41 µM
- CC50 (SK-MEL-28; [5]): 57.7 µM
- TGI Conc. per Cell Lines (SK-MEL-28): >100 µM
- GI50 (SK-MEL-5; [4]): 3.87 µM
- CC50 (SK-MEL-5; [5]): 38.7 µM
- TGI Conc. per Cell Lines (SK-MEL-5): 19.5 µM
- GI50 (UACC-257; [4]): 4.67 µM
- CC50 (UACC-257; [5]): > 100 µM
- TGI Conc. per Cell Lines (UACC-257): 87.8 µM
- GI50 (UACC-62; [4]): 2.62 µM
- CC50 (UACC-62; [5]): > 100 µM
- TGI Conc. per Cell Lines (UACC-62): 10.1 µM
- GI50 (IGROV1; Homo sapiens, IGROV-1, read-out: GI50 Conc. per Cell Lines): 5.35 µM
- CC50 (IGROV1; Homo sapiens, IGROV-1, read-out: LC50 (the source's name)): > 100 µM
- TGI Conc. per Cell Lines (IGROV1): 19.8 µM
- LC50 (OVCAR-5; Homo sapiens): > 100 µM
- GI50 (OVCAR-5; [4]): 3.37 µM
- TGI Conc. per Cell Lines (OVCAR-5): 11.4 µM
- LC50 (MCF7; Homo sapiens): 22.5 µM
- GI50 (MCF7; [4]): 3.63 µM
- TGI Conc. per Cell Lines (MCF7): 21.6 µM
- LC50 (HS 578T; Homo sapiens): > 100 µM
- GI50 (HS 578T; [4]): 3.09 µM
- TGI Conc. per Cell Lines (HS 578T): 16.6 µM
- TGI Conc. per Cell Lines (BT-549): 11.1 µM
- GI50 (BT-549; [4]): 3.71 µM
- CC50 (BT-549; [5]): 6.28 µM
- LC50 (concentration killing 50% of cells) (T-47D; Homo sapiens, T47D): > 100 µM
- GI50 (T-47D; Homo sapiens, T47D, read-out: GI50 Conc. per Cell Lines): 3.6 µM
- TGI Conc. per Cell Lines (T-47D): 31.4 µM
- LC50 (MDA-MB-468; Homo sapiens): 46 µM
- GI50 (MDA-MB-468; [4]): 1.72 µM
- TGI Conc. per Cell Lines (MDA-MB-468): 3.47 µM
- GI50 (Leukemia subpanel; Homo sapiens, Leukemia, average sensitivity of all cell lines of the subpanel, read-out: GI50 Subpanel MID b): 2.8 µM
- GI50 Selectivity Ratio (MID a/MID b) (Leukemia subpanel; Leukemia subpanel): 1.30
- GI50 Selectivity Ratio (MID a/MID b) (CNS cancer subpanel; CNS cancer subpanel): 0.763
- GI50 (CNS cancer subpanel; Homo sapiens, CNS cancer, average sensitivity of all cell lines of the subpanel, read-out: GI50 Subpanel MID b): 4.78 µM
- GI50 (Melanoma subpanel; Homo sapiens, Melanoma, average sensitivity of all cell lines of the subpanel, read-out: GI50 Subpanel MID b): 3.42 µM
- GI50 Selectivity Ratio (MID a/MID b) (Melanoma subpanel; Melanoma subpanel): 1.06
- GI50 (Renal cancer subpanel; Homo sapiens, Renal cancer, average sensitivity of all cell lines of the subpanel, read-out: GI50 Subpanel MID b): 5.23 µM
- GI50 Selectivity Ratio (MID a/MID b) (Renal cancer subpanel; Renal cancer subpanel): 0.69
- GI50 Selectivity Ratio (MID a/MID b) (Breast cancer subpanel; Breast cancer subpanel): 1.24
- GI50 (Breast cancer subpanel; Homo sapiens, Breast cancer, average sensitivity of all cell lines of the subpanel, read-out: GI50 Subpanel MID b): 2.93 µM
- GI50 ([1]; average sensitivity of all cell lines, read-out: GI50 MID a): 3.65 µM
- GI50 ([1]; most of the tested cell lines across nine subpanels, read-out: GI50 values, range across nine subpanels): 2.45 to 5.23 µM
